# Experimental data taken from patent US12390490B2, “Sphingolipid-based selenium compounds, methods for their preparation, and pharmaceutical uses thereof, including as antitumor agents” (MUSC FOUNDATION FOR RESEARCH DEVELOPMENT, priority 2019, dated 2025).
# “Also recorded” adds a separate entry of the source.
# How the values were obtained:
# HNSCC-1A cells [1] = assay: Cell death / MTT cell viability assay; type: cell-based, human
# HNSCC-1A cells [2] = assay: Confocal immunofluorescence, colocalization of ceramide and Tom20; type: cell-based, human; conditions: 1 μM or 4 μM, 1.5 hours, compared to vehicle and LCL-461
# HNSCC-1A cells [3] = assay: LC3B-II levels by Western blotting (autophagy); type: cell-based, human; conditions: 4 μM, 1.5 hours
# Experimental: LC3B-II levels were measured via Western blotting. Image-processing software was used to quantify the band intensity from the blots.
# (§1) Cellular lysates in radioimmunoprecipitation assay (RIPA) buffer containing a protease inhibitor cocktail (Sigma-Aldrich, St. Louis, Missouri, United States of America) were normalized by the total protein level and analyzed by sodium dodecyl sulfate-polyacrylamide gel electrophoresis (SDS-PAGE) and immunoblotting with corresponding antibodies. For immunoprecipitation, precleared cytosolic fractions were incubated overnight with 2 μg of corresponding antibodies at 4° C., followed by 1-hour incubation with Protein A/G Agarose (Santa Cruz Biotechnology, Inc., Dallas, Texas, United States of America) (50 μl of a 50% slurry). Resin was washed three to five times, and pulled-down proteins were analyzed by SDS-PAGE and Western blotting with corresponding antibodies.
# HNSCC-1A cells [4] = assay: ACO2 levels by Western blotting (lethal mitophagy); type: cell-based, human; conditions: 4 μM, 48 hours
# Experimental: FIG. 6 is a graph showing levels of aconitase 2 (ACO2) (reported as normalized cumulative pixel intensity) in head and neck squamous cell carcinoma (HNSCC-1A) cells incubated with 4 micromolar (μM) concentrations of a pyridinium-substituted ceramide-based compound (LCL-461), the selenite conjugated salt of a pyridinium-substituted ceramide-based compound (LCL-768), or vehicle for 48 hours. ACO2 levels were measured via Western blotting. Image-processing software was used to quantify the band intensity from the blots.
# HNSCC-1A cells [5] = assay: ATP levels (lethal mitophagy); type: cell-based, human; conditions: 4 μM, 48 hours
# Experimental: FIG. 7 is a graph showing adenosine triphosphate (ATP) activity in head and neck squamous cell carcinoma (HNSCC-1A) cells incubated with 4 micromolar (μM) concentrations of a pyridinium-substituted ceramide-based compound (LCL-461), the selenite conjugated salt of a pyridinium-substituted ceramide-based compound (LCL-768), or vehicle for 48 hours. ATP levels in the samples were measured, and all samples were normalized to a standard curve and then to vehicle activity.
# HNSCC-IA cells = assay: Confocal immunofluorescence, colocalization of CerS1 and mitochondrial protein Tom20; type: cell-based, human; conditions: 1 μM, 3 hours
# Experimental: FIG. 3A is a series of confocal microscopy images of cells treated with 1 micromolar (1 μM) concentrations of a pyridinium-substituted ceramide-based selenium conjugated compound (LCL-768) or vehicle for 3 hours and labeled for Ceramide Synthase 1 (CerS1; top row), mitochondria (middle row) or both (bottom row).
# UM-SCC-22A (squamous carcinoma) cells (50,000 per well) were plated on glass coverslips in a six-well plate for 18 hours. Cells were fixed and permeabilized using 4% paraformaldehyde (20 min) and 0.1% Triton X-100 in 1× phosphate-buffered saline (PBS) (pH 7.4) for 10 min. The cells were then blocked with 1% bovine serum albumin (BSA)/PBS (pH 7.4) for 1 hour. […] Immunofluorescence was performed using a Leica TCS SP2 AOBS confocal microscope (Leica Microsystems, Wetzler, Germany), an Olympus FV10i microscope (Olympus Corporation, Tokyo, Japan) with 543- and 488-nm channels for visualizing green and red fluorescence, or a Zeiss LSM 880 NLO Quasar confocal/multiphoton microscope with a Fast Airyscan super-resolution detector (Carl Zeiss, AG, Oberkochen, Germany). […] At least three random fields were selected for image quantification.
# normal murine astrocytes = assay: MTT cell viability, normal murine astrocytes; type: cell-based; conditions: 5 μM, 24 hour treatment
# [6] = test system: normal human astrocyte (HA) cells; assay: MTT cell viability, normal human astrocytes; type: cell-based; conditions: 5 μM, 24 hour treatment
# 43RG32 cells = assay: Western blotting of mitophagy markers, 43RG32 cells; type: cell-based, human
# Experimental: (§2) FIG. 10 is a composite gel image of Western blot analysis of extracts from non-cancerous human astrocytes (HA), 43RG32 and U118 cells treated with 0 micromolar (0 μM) or 5 μM LCL-768. The effects of LCL-768 on LC3-II activation, aconitase 2 (ACO2) degradation, and dynamin-related GTPase (Drp1) dephosphorylation at […] were measured as markers of mitophagy (n=3).
# (§3) 43RG32 and U118 glioblastoma cells were treated with (+) or without (−) 5 micromolar (5 μM) LCL-768 and with (+) or without (−) the Drp1 inhibitor Mdivi-1. Actin was used as a loading control (n=3).
# as §1
# U118 cells = assay: Western blotting of mitophagy markers, U118 cells; type: cell-based, human
# Experimental: as §2, §3, §1
# [7] = test system: non-cancerous human astrocytes (HA); conditions: 5 μM
# Experimental: as §2, §1
# [8] = test system: orthotopic GB U118-xenograft-derived tumor; assay: Orthotopic GB U118 xenograft in brains of SCID mice; type: in vivo; conditions: 1 mg/kg/day for 14 days, female SCID mice
# UM-SCC-1A cells [9] = assay: CYTO-ID mitophagy detection in UM-SCC-1A cells with shSCR or shLC3; type: cell-based, human
# UM-SCC-1A cells [10] = assay: Subcellular accumulation by differential centrifugation and mass spectrometry; type: cell-based, human; conditions: 10 μM, 6-24 hours
# Experimental: FIG. 13D is a graph showing the subcellular accumulation of LCL-768 (10 micromolar (μM)) after 0, 3, 6, 9, or 24 hours in the nucleus, mitochondria and cytoplasm of human head and neck squamous cell carcinoma (HNSCC) cells (UM-SCC-1A cells) as measured by mass spectrometry/lipidomics after differential centrifugation.
# The effects of LCL-768 on mitophagy induction in UM-SCC-IA cells transfected stably with the shRNA against LC3B (shLC3) was studied and compared to controls (UM-SCC-1A cells transfected with a control shRNA, shSCR). […] The subcellular accumulation of LCL-768 was studied in the same cells. Nucleus, mitochondria and cytoplasm in LCL-768-treated cells were isolated by differential centrifugation and LCL-768 accumulation was measured by mass spectrometry. […] Thus, these studies further support mitochondrial accumulation and efficacy of LCL-768 in inducing mitophagy in UM-SCC-1A cells.
# HNSCC organoids [11] = assay: Ex vivo 2D HNSCC patient organoids, CerS1/Tom20 co-localization (mitophagy); type: cell-based, human; conditions: ex vivo treatment
# Excerpt: FIG. 14A is a series of microscopy images showing the H&E staining (top row) and fluorescence imaging of the co-localization of translocase of outer mitochondrial membrane 20 (Tom20) and CerS1 (as a measure of mitophagy, middle row) in two-dimensional (2D) organoids developed from a patient with head and neck squamous cell carcinoma (HNSCC) in response to treatment with vehicle, LCL-768, sodium selenite (SoSe), rapamycin, or cisplatin ex vivo. Co-localization of cis-Golgi matrix protein 130 kDa (GM130) and Calnexin was used as a negative control (bottom row).
# FIG. 14B is a graph showing the quantification of colocalization of Tom20 and CerS1 from the treated two-dimensional (2D) organoids described for FIG. 14A.
# (§4) To validate the clinical relevance of the activation of mitophagy, 2D organoids^4 were developed using tumor tissues obtained from a patient with HNSCC. […] The co-localization of GM130/Calnexin was used as a control.
# [12] = test system: non-cancerous adjacent tissue organoids; assay: Ex vivo non-cancerous adjacent tissue organoids, mitophagy; type: cell-based, human; conditions: ex vivo treatment, same patient
# Excerpt: as §4
# HNSCC organoids [13] = conditions: ex vivo treatment, MALDI-Imaging
# Excerpt: as §4
# [14] = Maximum tolerated dose in SCID mice; type: in vivo
# UM-SCC-1A-xenografts = test system: UM-SCC-1A-xenografts
# Excerpt: Tumor volume (cubic millimeters (mm^3)) is provided for both […] mice and mice treated with vehicle as a control.
# HNSCC-1A cells [15] = conditions: 1 and 2.5 μM, live HNSCC-1A cells
# [16] = test system: murine glioblastoma (GL261) cells; conditions: 5 μM, 24 hour treatment
# human glioblastoma cells = conditions: 5 μM, 24 hour treatment, compared to LCL-461 or sodium selenite
compound,measurement,setting,value
"CCCCCCCCCCCCCCCCCC(=O)N[C@@H](CO)[C@H](O)/C=C/CCCCCCCCC[n+]1ccccc1.[Br-] [LCL-461, D-erythro-2-N-octadecanoyl-14-(1′-pyridinium)-sphingosine bromide, reference compound]",IC50,"HNSCC-1A cells [1]; Homo sapiens, 24 hours",~10 µM
same,IC50,"HNSCC-1A cells [1]; Homo sapiens, 48 hours",~4 µM
same,colocalization of ceramide and Tom20 (selenite-stress response),HNSCC-1A cells [2],does not cause a strong selenite-stress response
same,LC3B-II levels (autophagy),HNSCC-1A cells [3],increased LC3B-II levels
same,levels of ACO2 compared to vehicle (lethal mitophagy),HNSCC-1A cells [4],decreased levels
same,levels of ATP compared to vehicle (lethal mitophagy),HNSCC-1A cells [5],decreased levels
"CCCCCCCCCCCCCCCCCC(=O)N[C@@H](CO)[C@H](O)/C=C/CCCCCCCCC[n+]1ccccc1.CCCCCCCCCCCCCCCCCC(=O)N[C@@H](CO)[C@H](O)/C=C/CCCCCCCCC[n+]1ccccc1.O=[Se]([O-])[O-] [LCL-768, D-erythro-14-(1′-pyridinium)-N-octadecanoyl-sphingosine selenite]",IC50,HNSCC-1A cells [1]; 24 hours,~10 µM
same,IC50,HNSCC-1A cells [1]; 48 hours,~4 µM
same,colocalization of CerS1 and mitochondrial protein Tom20,HNSCC-IA cells,significant increase
same,colocalization of ceramide and Tom20 (selenite-stress response),HNSCC-1A cells [2],increased colocalization
same,LC3B-II levels (autophagy),HNSCC-1A cells [3],increased LC3B-II levels
same,levels of ACO2 compared to vehicle (lethal mitophagy),HNSCC-1A cells [4],decreased levels
same,levels of ATP compared to vehicle (lethal mitophagy),HNSCC-1A cells [5],decreased levels
same,cell death in mouse normal astrocytes,normal murine astrocytes,not induced
same,cell death in human normal astrocytes,[6],not induced
same,ACO2 degradation (mitophagy),43RG32 cells; 5 μM,induced
same,LC-3B-II activation (autophagy marker),43RG32 cells; 5 μM,induced
same,ACO2 degradation (mitophagy),U118 cells; 5 μM,induced
same,LC-3B-II activation (autophagy marker),U118 cells; 5 μM,induced
same,ACO2 degradation (mitophagy),[7]; HA cells,not
same,LC-3B-II activation (autophagy marker),[7]; HA cells,not
same,"mitophagy (LC3-II activation, ACO2 degradation, Drp1 dephosphorylation as markers)",[7]; as stated in legend of FIG. 10,induces mitophagy
same,tumor growth in the brain (MRI) compared to controls,[8]; osmotic pump into brain tumor,remarkably reduced tumor growth
same,increase of survival post-treatment,"[8]; osmotic pump, vs vehicle",about 10 days
same,mitophagy induction in shSCR-controls,"UM-SCC-1A cells [9]; 10 μM, 6, 9 and 24 hours, UM-SCC-1A shSCR",highly induced mitophagy
same,mitophagy induction after knockdown of LC3,"UM-SCC-1A cells [9]; 10 μM, UM-SCC-1A shLC3",almost completely prevented
same,"subcellular accumulation (nucleus, mitochondria, cytoplasm)",UM-SCC-1A cells [10],largely accumulated in the mitochondria
same,mitophagy (co-localization of CerS1 and Tom20) compared to vehicle-treated controls,HNSCC organoids [11],induced mitophagy
same,mitophagy induction in non-cancerous adjacent tissue organoids,[12],did not affect mitophagy induction
same,endogenous C24-ceramide compared to controls,HNSCC organoids [13],decreased
same,maximum tolerated dose (MTD),[14],10 mg/kg
same,tumor growth compared to vehicle-treated mice,"UM-SCC-1A-xenografts; 10 mg/kg intraperitoneal every other day, 21 days, SCID mice",inhibited tumor growth significantly
same,"mitophagy in xenograft-derived tumors (ACO2, P-S637 Drp1, S-NO-Drp1)","UM-SCC-1A-xenografts; day 21, Western blotting",induction of mitophagy
same,accumulation in tumor vs adjacent non-tumorigenic tissues,"UM-SCC-1A-xenografts; day 21, mass spectrometry",higher tumor accumulation
same,time of exposure at which mitophagy is occurring,HNSCC-1A cells [15],≤ 90 min
same,autophagic cell death in mouse glioblastoma cells,[16],induced autophagic cell death in mouse glioblastoma cells at a higher level than either LCL-461 or sodium selenite
same,autophagic cell death in human glioblastoma cells,human glioblastoma cells,induced autophagic cell death
"COc1cc(-n2c(=S)[nH]c3ccccc3c2=O)c(Cl)cc1Cl [Mdivi-1, reference compound]",effect of Drp1 inhibition on LCL-768-mediated ACO2 degradation / mitophagy,43RG32 cells; with 5 μM LCL-768,almost completely prevented; also recorded: prevents
same,effect of Drp1 inhibition on LCL-768-mediated ACO2 degradation / mitophagy,U118 cells; with 5 μM LCL-768,almost completely prevented; also recorded: prevents
"N.N.[Cl][Pt][Cl] [cisplatin, reference compound]",mitophagy (co-localization of CerS1 and Tom20) compared to vehicle-treated controls,HNSCC organoids [11],induced mitophagy
same,mitophagy induction in non-cancerous adjacent tissue organoids,[12],did not affect mitophagy induction
"O=[Se](O)O [sodium selenite, reference compound]",cell death in mouse normal astrocytes,normal murine astrocytes,not induced
same,cell death in human normal astrocytes,[6],not induced
